One data set deals with VpBTN3 BFI (Vicugna pacos, UniProt A0A345DF50). Briefly: ITC: pAg binding to VpBTN3 BFI. Also noted: species or system alpaca (Vicugna pacos). On the procedure:
(§1) ITC experiments were performed using the MicroCal PEAQ-ITC instrument (GE Healthcare) at 25 °C. We used an initial injection of 0.4 μl followed by 19 injections (2 µl each) at 150 s time intervals. ITC binding fits were calculated using MicroCal Analysis software. The samples were prepared using a buffer (20 mM HEPES pH 7.5, 150 mM NaCl).
(§2) ITC experiments of HMBPP, DMAPP or IPP binding to the VpBTN3 BFI (or the preconditioned VpBTN3 BFI and VpBTN2 BFI complex) and VpBTN2 BFI (or VpBTN1 BFI) binding to VpBTN3 BFI in the presence of HMBPP, DMAPP or IPP were performed according to the same procedures as for the BTN3A1 B30.2 and BTN2A1 B30.2.
Background: In ITC the heat of successive injections is recorded.

A further data set has as its system MIA PaCa-2 cells. Briefly: Cell killing assay: cytotoxicity of Vγ9Vδ2 T cells towards pAg- or zoledronate-treated MIA PaCa-2 cells (luciferase). In kind it is cell-based, human. As to conditions: Homo sapiens, MIA PaCa-2, read-out: EC50 (M) for MIA PaCa-2 cell lysis mediated by HMBPP analogs and Vγ9Vδ2 T cells.
Another data set deals with VpBTN1 BFI–VpBTN3 BFI. Briefly: ITC: VpBTN1 BFI binding to VpBTN3 BFI in the presence of pAg. Also on record: species or system alpaca (Vicugna pacos). On the procedure:
as §1, §2

Data set [1] has as its system BTN2A−/− MIA PaCa-2 (BTN2A1/BTN2A2 KO) cells. Nature of the data set: Cell killing assay with BTN2A−/− MIA PaCa-2 (BTN2A1/BTN2A2 KO) cells expressing BTN2A1/BTN2A2 variants. As to conditions: replicates and mean.
A further data set concerns the target T1, BTN3A1 B30.2 domain (Homo sapiens, UniProt O00481).
T1 construct: The BTN3A1 B30.2 domain was expressed and purified as described previously; made in house
Briefly: ITC: pAg binding to the BTN3A1 B30.2 domain. As to conditions: 25 °C, read-out: KD, pAg binding to BTN3A1 B30.2 alone. As for the experimental part: (§3) ITC binding fits were calculated using MicroCal Analysis software.
For pAg binding to the BTN3A1 B30.2 domain, the sample cell and injection syringe were filled with the buffer containing 100 µM protein and 1 mM HMBPP, respectively, or 400 µM protein and 4 mM DMAPP (IPP), respectively.

Another data set concerns Vγ9Vδ2 T cells. The note with it: cited from earlier work.
Data set [2] deals with T2, preconditioned BTN2A1–BTN3A1 B30.2 complex (Homo sapiens, UniProt O00481+Q7KYR7).
T2 construct: The BTN3A1 B30.2 domain was expressed and purified as described previously; 6xHis; made in house; host or cells: Escherichia coli BL21 (DE3) for BTN2A1 B30.2
Nature of the data set: ITC: pAg binding to the preconditioned BTN2A1 B30.2 and BTN3A1 B30.2 complex. As for the experimental part: as §3
For HMBPP binding to the preconditioned BTN2A1 B30.2 and BTN3A1 B30.2 complex, BTN2A1 B30.2 (20 µM) and BTN3A1 B30.2 (10 µM) were incubated in the buffer at a 2:1 ratio and loaded into the sample cell, and the injection syringe was filled with buffer containing 100 µM HMBPP.
For DMAPP/IPP binding to the preconditioned BTN2A1 B30.2 and BTN3A1 B30.2 complex, BTN2A1 B30.2 (200 µM) and BTN3A1 B30.2 (100 µM) were incubated in buffer at a 2:1 ratio and loaded into the sample cell, and the injection syringe was filled with buffer containing 1 mM DMAPP/IPP.
For other pAgs, their concentrations were adjusted to 500 µM, and BTN2A1 B30.2 and BTN3A1 B30.2 were adjusted to 100 µM and 50 µM at a 2:1 ratio.

Values joined by “and” are separate entries in the source; they are usually repeats but may differ in a detail not shown here. Identical values can stand only once. Like-named read-outs stand apart in the source and are kept apart here.

By Kd is commonly meant the concentration at which binding is half-saturated. As a reminder, the EC50 is the concentration that produces a half-maximal response.

T1 sequence (O00481 322-513 limits assumed): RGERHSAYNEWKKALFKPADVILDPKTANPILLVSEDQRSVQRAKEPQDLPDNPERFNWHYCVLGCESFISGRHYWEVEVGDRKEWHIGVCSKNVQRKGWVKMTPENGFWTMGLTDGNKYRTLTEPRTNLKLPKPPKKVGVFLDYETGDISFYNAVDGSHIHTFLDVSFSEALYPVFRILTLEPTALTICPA
T2 sequence (O00481 322-513 limits assumed): as above
T2 sequence (Q7KYR7 316-527 limits assumed): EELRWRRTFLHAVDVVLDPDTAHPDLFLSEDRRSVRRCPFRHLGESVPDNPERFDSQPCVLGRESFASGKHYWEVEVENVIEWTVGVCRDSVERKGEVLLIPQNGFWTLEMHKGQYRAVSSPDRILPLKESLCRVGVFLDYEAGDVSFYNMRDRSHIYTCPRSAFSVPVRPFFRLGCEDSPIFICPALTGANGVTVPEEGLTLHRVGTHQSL
VpBTN3 BFI, sequence (A0A345DF50 entry or part of it): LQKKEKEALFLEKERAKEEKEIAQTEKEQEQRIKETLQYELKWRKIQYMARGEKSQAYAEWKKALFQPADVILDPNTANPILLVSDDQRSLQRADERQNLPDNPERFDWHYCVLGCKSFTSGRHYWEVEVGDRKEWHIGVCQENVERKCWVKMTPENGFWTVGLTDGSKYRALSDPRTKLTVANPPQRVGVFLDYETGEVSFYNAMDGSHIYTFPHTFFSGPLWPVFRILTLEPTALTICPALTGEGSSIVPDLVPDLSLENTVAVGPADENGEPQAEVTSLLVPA
Description for MIA PaCa-2 cells: MIA PaCa-2 cells were infected with lentivirus bearing luciferase transgene. Luciferase-positive cells were plated at 5.0 × 10^3 cells per well in 384-well plates 1 day before transfection. All plasmids were transfected into BTN2A^−/− MIA PaCa-2 (BTN2A1/BTN2A2 KO) cells using Lipofectamine 2000 reagent. […] Stable-lite luciferase (Vazyme) was added to each well and the luciferase signal was immediately measured by using the PerkinElmer EnVision microplate reader.
Percentage of lysis was calculated using the following equation: percentage of specific lysis = (maximum luciferase − experimental luciferase)/maximum luciferase × 100.

On to `C=C(C)CCO[P@@](=O)(O)OP(=O)(O)O` [Compound 3, 3-methylbut-3-en-1-yl diphosphate], for which the Kd stood at 96.1 µM on VpBTN3 BFI, 658 µM at BTN3A1 B30.2 domain and 625 µM in data set [2]. The concentration giving a half-maximal response (EC50) in the data set with MIA PaCa-2 cells came to 0.00493 M. Moreover, the “VpBTN1 binding to VpBTN3 in the presence of pAg” value in the data set on VpBTN1 BFI–VpBTN3 BFI is “does not bind”. The “Cytotoxicity of Vγ9Vδ2 T cells (percentage of specific lysis)” value in data set [1] (IPP log concentration -3, 2A1 WT cells, listed as IPP) is 80.272% and 79.8722% and 80.6% and 81.6589%; in data set [1] (IPP log concentration -3, 2A1 ∆C cells, listed as IPP), 66.24% and 65.5729% and 68.622% and 64.5211%; in data set [1] (IPP log concentration -4, 2A1 WT cells, listed as IPP), 65.5992% and 65.1182% and 63.37% and 59.3975%; in data set [1] (IPP log concentration -4, 2A1 ∆C cells, listed as IPP), 41.6% and 36.6007% and 47.2763% and 40.914%; in data set [1] (IPP log concentration -5, 2A1 WT cells, listed as IPP), 35.2807% and 27.2598% and 28.66% and 23.4468%; in data set [1] (IPP log concentration -5, 2A1 ∆C cells, listed as IPP), 1.679% and 1.84% and 2.699% and 0.4994%. In addition, the “Cytotoxicity of Vγ9Vδ2 T cells (percentage of specific lysis)” value in data set [1] (IPP log concentration -6, 2A1 WT cells, listed as IPP) was 15.0716% and 6.17% and 6.634% and -1.341%; in data set [1] (IPP log concentration -6, 2A1 ∆C cells, listed as IPP), -15.39% and -15.1198% and -17.7309% and -13.3339%; in data set [1] (IPP log concentration -7, 2A1 WT cells, listed as IPP) it was 11.2422% and 4.023% and 5.64% and 1.654%; in data set [1] (IPP log concentration -7, 2A1 ∆C cells, listed as IPP), -18.31% and -18.7728% and -18.1549% and -17.992%; in data set [1] (IPP log concentration -8, 2A1 WT cells, listed as IPP), 11.2149% and 6.571% and 5.735% and -0.5797%; in data set [1] (IPP log concentration -8, 2A1 ∆C cells, listed as IPP), -16.71% and -15.5368% and -14.5401% and -20.0505%. Also, the “Cytotoxicity of Vγ9Vδ2 T cells (percentage of specific lysis)” value in data set [1] (IPP log concentration -9, 2A1 WT cells, listed as IPP) was 7.561% and 7.582% and 2.411% and -7.912%; in data set [1] (IPP log concentration -9, 2A1 ∆C cells, listed as IPP), -17.93% and -16.44% and -18.8245% and -18.5163%; in data set [1] (IPP log concentration -10, 2A1 WT cells, listed as IPP), 9.041% and 9.773% and 3.545% and -8.179%; in data set [1] (IPP log concentration -10, 2A1 ∆C cells, listed as IPP), -16.6% and -16.8802% and -17.0673% and -15.8455%. For the same compound, the “Vγ9Vδ2 T cell activation” value in the data set on Vγ9Vδ2 T cells is listed as “weakly activate”.

With `CC(C)=CCOP(=O)(O)OP(=O)(O)O` [Compound 2, 3-methylbut-2-en-1-yl diphosphate], the Kd at VpBTN3 BFI was 92.7 µM; on BTN3A1 B30.2 domain it was 120 µM; in data set [2] (ITC, read-out: KD, pAg binding to the preconditioned BTN2A1–BTN3A1 B30.2 complex), 34.5 µM. Also, the EC50 with MIA PaCa-2 cells was found to be 3.38e-05 M. Moreover, in the data set with VpBTN1 BFI–VpBTN3 BFI, the “VpBTN1 binding to VpBTN3 in the presence of pAg” value is recorded as “does not bind”. Also, the “Cytotoxicity of Vγ9Vδ2 T cells (percentage of specific lysis)” value in data set [1] (DMAPP log concentration -3, 2A1 WT cells) was 67.6357% and 66.8005% and 66.45% and 64.9272%; in data set [1] (DMAPP log concentration -3, 2A1 ∆C cells), 50.07% and 46.3428% and 49.8006% and 54.0592%; in data set [1] (DMAPP log concentration -4, 2A1 WT cells), 51.6139% and 52.9591% and 50.43% and 46.7133%; in data set [1] (DMAPP log concentration -4, 2A1 ∆C cells) it was 32.85% and 28.2229% and 33.1127% and 37.2268%; in data set [1] (DMAPP log concentration -5, 2A1 WT cells), 27.5187% and 30.1465% and 24.7% and 16.4296%; in data set [1] (DMAPP log concentration -5, 2A1 ∆C cells) it was 7.57% and 3.153% and 7.027% and 12.531%. The “Cytotoxicity of Vγ9Vδ2 T cells (percentage of specific lysis)” value is 16.7353% and 16.8396% and 11.83% and 1.904% in data set [1] (DMAPP log concentration -6, 2A1 WT cells); -5.456% and -7.052% and -6.983% and -2.333% in data set [1] (DMAPP log concentration -6, 2A1 ∆C cells); 14.3939% and 14.8552% and 15.57% and 17.4711% in data set [1] (DMAPP log concentration -7, 2A1 WT cells); -6.482% and -4.367% and -8.1249% and -6.954% in data set [1] (DMAPP log concentration -7, 2A1 ∆C cells); 15.6376% and 16.0032% and 16.43% and 17.6429% in data set [1] (DMAPP log concentration -8, 2A1 WT cells); -6.047% and -3.94% and -7.782% and -6.418% in data set [1] (DMAPP log concentration -8, 2A1 ∆C cells). The “Cytotoxicity of Vγ9Vδ2 T cells (percentage of specific lysis)” value in data set [1] (DMAPP log concentration -9, 2A1 WT cells) is 15.8717% and 18.2997% and 15.33% and 11.8213%; in data set [1] (DMAPP log concentration -9, 2A1 ∆C cells), -5.239% and -4.736% and -6.266% and -4.716%; in data set [1] (DMAPP log concentration -10, 2A1 WT cells), 19.1442% and 5.933% and 13.82% and 16.3962%; in data set [1] (DMAPP log concentration -10, 2A1 ∆C cells) it was -5.48% and -6.082% and -3.811% and -6.548%. Further, in the data set with Vγ9Vδ2 T cells, the “Vγ9Vδ2 T cell activation” value was “weakly activate”.

The values above are taken from paper PMC10533412, “Phosphoantigens glue butyrophilin 3A1 and 2A1 to activate Vγ9Vδ2 T cells” (Nature, 2023).
